What was measured:
mTOR = conditions: threshold basis for Phase 1 expansion; no reference given; read-out: biochemical IC50; cited from earlier work
[1] = Adverse events related to study treatment (CTCAE); format: in vivo, human
Procedure: Eligibility was determined based on previous clinical records, panel DNA sequencing, and IHC of archival tissue from a previous surgery (Figure 1, Supplementary Figure S2A).

GB126 = experiment: Ribociclib-treated in vitro single-cell RNA sequencing, malignant state proportions; format: cell-based, human; conditions: ribociclib vs DMSO 5 days
Description: (§1) Patient-derived glioma stem cell lines (GSCs; GB126, GB86, and GB239) were established from resected GBM tumor tissue. Cell lines were genetically profiled for mutations and copy number aberrations using the […] custom gene panel. All cell lines harbored high-level CDK4 amplifications among other alterations. […] The single-cell RNA sequencing data were then processed via cellranger count and Seurat. Briefly, cells were filtered out based on the following criteria: minimum number of genes detected >500 and <10 000 with a maximum percentage of mitochondrial genes set to 10%. Statistical assessment was made between the malignant proportions of each cell state using a 2-sided paired t-test.

GB86 = experiment: as above; format: cell-based, human; conditions: ribociclib vs DMSO 5 days
Description: as §1

GB239 = experiment: as above; format: cell-based, human; conditions: ribociclib vs DMSO 5 days
Description: as §1

[2] = 900 mg QD 5 days monotherapy; ref Tien A, Clin Cancer Res 2019; cited from earlier work
Ki-67 = experiment: IHC of tumor tissue, percentage of Ki-67 positive cells, archival vs Phase 0 surgical sample; format: in vivo, human
p4EBP1 = experiment: IHC of tumor tissue, p4EBP1 positive cells; format: in vivo, human; conditions: 5 days ribociclib + everolimus; paired t-test P > .05
Procedure: (§2) Everolimus pharmacodynamic biomarkers were assessed using IHC with the following antibodies: anti-p4EBP1 (Cell Signaling Technology; #2855, 1:500); anti-pS6 ribosomal protein (Cell Signaling -Technology; #4858, 1:100). IHC staining was performed using the BOND RX automated system (Leica Biosystems) as previously described.[8] Stained slides were imaged on a Leica Versa microscope and analyzed with Aperio Image software. Percentage of stain-positive cells was quantified from at least 6 randomly selected regions of interest within the tumor as assessed by a board-certified neuropathologist.

pRb = experiment: IHC of tumor tissue, pRb positive cells, archival vs Phase 0 surgical sample; format: in vivo, human; conditions: IDH-wildtype patients n = 20; paired t-test P = .25; 5 days ribociclib + everolimus
pS6 ribosomal protein = experiment: IHC of tumor tissue, pS6 ribosomal protein positive cells; format: in vivo, human; conditions: 5 days ribociclib + everolimus; paired t-test P > .05
Procedure: as §2

[3] = system: phosphorylated Rb protein in GB126, GB86 and GB239 glioma stem cell lines; experiment: Determination of ribociclib dose in vitro (phosphorylated Rb, Western blotting); format: cell-based, human; conditions: 5 days, tested 0.5, 1 and 5 μM
Procedure: Patient-derived glioma stem cell lines (GSCs; GB126, GB86, and GB239) were established from resected GBM tumor tissue. Cell lines were genetically profiled for mutations and copy number aberrations using the IvySeq custom gene panel. […] GB239 was derived from a tumor sample included in this Phase 0 trial (tumor sample: 100-0039). All human GSCs were cultured as described previously.[12]

CDK4/6 = conditions: threshold basis for Phase 1 expansion; no reference given; read-out: biochemical IC50; cited from earlier work
[4] = system: malignant cells of recurrent IDH-wildtype glioblastoma; experiment: Single nucleus RNA sequencing of tumor samples, malignant cell state proportions vs standard-of-care cohorts; format: in vivo, human
Description: Count matrices were loaded into R using Seurat's (version 4.3.0) Read10X function. Cells were filtered based on the following quality control criteria: number of genes detected greater than 500 and fewer than 10 000; maximum percentage of mitochondrial genes of 5%. DoubletFinder was used to identify potential nuclei doublets, which were filtered out.[17] The expression data were processed by normalization, scaling, PCA based on genes differentially expressed across brain cell types, Harmony batch correction for sample preparation batch,[18] Uniform Manifold Approximation and Projection (UMAP), and clustering using the Louvain algorithm, and resolution set to 0.6. Cell type annotation was based on gene expression markers for each cluster and confirmed via mapping to a normal reference brain atlas (Azimuth). […] (https://github.com/broadinstitute/[…]) was used to confirm malignant status based on the presence of copy number alterations. […] HMM-predicted copy number alteration levels were extracted to define malignant and nonmalignant cells based on the following approach. […] Putative malignant cells not meeting this threshold were labelled as unresolved and excluded. Cells assigned to a nonmalignant gene expression cluster with 25% of chromosome 7 inferred gain and/or 25% of chromosome 10 inferred loss were labelled as unresolved and excluded. Samples with fewer than 25 malignant cells were excluded from malignant state analysis. […] Cell cycle status was assigned independent of […] cell state. Cells were classified as AC-like, etc., along with its cell cycle status-cycling or not.

[5] = Dose Level 4: ribociclib 600mg QD 5 days + everolimus 50mg single dose, CTCAE grade 1
[6] = Dose Level 5: ribociclib 600mg QD 5 days + everolimus 60mg single dose, CTCAE grade 2

CO[C@H]1C[C@@H]2CC[C@@H](C)[C@@](O)(O2)C(=O)C(=O)N2CCCC[C@H]2C(=O)O[C@H]([C@H](C)C[C@@H]2CC[C@@H](OCCO)[C@H](OC)C2)CC(=O)[C@H](C)/C=C(\C)[C@@H](O)[C@@H](OC)C(=O)[C@H](C)C[C@H](C)/C=C/C=C/C=C/1C [Everolimus, everolimus]
IC50 (mTOR): 2 nM | Stomatitis, No. Patients Affected ([1]; Dose Level 0: ribociclib 400mg + everolimus 2.5mg QD 5 days, CTCAE grade 1): 1

CN(C)C(=O)c1cc2cnc(Nc3ccc(N4CCNCC4)cn3)nc2n1C1CCCC1 [Ribociclib, ribociclib]
MES-like malignant state proportion (GB126): increase | AC-like malignant state proportion (GB126; paired t-test P = 6.6E-3): increase | change in cycling cells (GB126; paired t-test P = 8.7E-4): decrease | change in cycling cells (GB86; paired t-test P = .04): decrease | AC-like malignant state proportion (GB86; paired t-test P = .06): increase | change in cycling cells (GB239; paired t-test P = 5.4E-4): decrease | AC-like malignant state proportion (GB239; paired t-test P = .03): increase | Total Ribociclib concentration, CSF, Maximum [2]: 838 nM | Total Ribociclib concentration, CSF, Median [2]: 267 nM | Total Ribociclib concentration, CSF, Minimum [2]: 43 nM | Total Ribociclib concentration, Enhancing tumor, Maximum [2]: 71.76 µM | Total Ribociclib concentration, Enhancing tumor, Median [2]: 29.252 µM | Total Ribociclib concentration, Enhancing tumor, Minimum [2]: 6.586 µM | Total Ribociclib concentration, Non-enhancing tumor, Maximum [2]: 31.424 µM | Total Ribociclib concentration, Non-enhancing tumor, Median [2]: 12.176 µM | Total Ribociclib concentration, Non-enhancing tumor, Minimum [2]: 452 nM | Unbound Ribociclib concentration, CSF, Maximum [2]: 645 nM | Unbound Ribociclib concentration, CSF, Median [2]: 152 nM | Unbound Ribociclib concentration, CSF, Minimum [2]: 18 nM | Unbound Ribociclib concentration, Enhancing tumor, Maximum [2]: 4.743 µM | Unbound Ribociclib concentration, Enhancing tumor, Median [2]: 1644 nM | Unbound Ribociclib concentration, Enhancing tumor, Minimum [2]: 307 nM | Unbound Ribociclib concentration, Non-enhancing tumor, Maximum [2]: 1295 nM | Unbound Ribociclib concentration, Non-enhancing tumor, Median [2]: 482 nM | change in proliferative Ki-67 marker, surgical samples vs matched archival tissue (Ki-67; IDH-wildtype patients n = 20, paired t-test P = .02, 5 days ribociclib + everolimus): significant decrease | median decrease in Ki-67 (Ki-67; ribociclib 400 mg): 2.93% | median decrease in Ki-67 (Ki-67; ribociclib 600 mg): 8.94% | mTOR pathway activity as quantified by p4EBP1, surgical specimen vs archival tissue (p4EBP1): elevated but not significantly different | change in phosphorylated Rb, surgical samples vs matched archival tissue (pRb): nonsignificant decrease | mTOR pathway activity as quantified by pS6, surgical specimen vs archival tissue (pS6 ribosomal protein): elevated but not significantly different | dose per cell line that achieved a 50% inhibition of pRb [3]: 0.5-5 µM | Dizziness, No. Patients Affected [1, 5]: 1 | Photophobia, No. Patients Affected [1, 5]: 1 | Platelet count decreased, No. Patients Affected ([1]; Dose Level 5: ribociclib 600mg QD 5 days + everolimus 60mg single dose, CTCAE grade 1): 1 | Nausea, No. Patients Affected [1, 6]: 1 | Pancytopenia (serious adverse event), No. Patients Affected [1, 6]: 1 | Electrocardiogram QT prolonged, No. Patients Affected ([1]; Dose Level 6: ribociclib 600mg QD 5 days + everolimus 70mg single dose, CTCAE grade 1): 1 | IC50 (CDK4/6): 40 nM | proportion of malignant cells actively cycling vs standard treatment cohorts (snRNAseq) ([4]; n = 17 ribociclib-exposed vs CARE n = 57 and Wang et al. n = 31, P = 3.2E-03 and P = 2.0E-04): lower proportion | neural progenitor-like (NPC-like) state vs standard treatment cohorts (snRNAseq) ([4]; n = 17 ribociclib-exposed vs CARE n = 57 and Wang et al. n = 31, P = 5.8E-05, P = 1.8E-03): decrease | fraction of NPC-like malignant cells, Phase 2 (104 days) vs Phase 0 (5-day) sample of one patient ([4]; ribociclib monotherapy, single case, snRNAseq): reduced fraction

From paper PMC13070491, “Single-nucleus transcriptomics, pharmacokinetics, and pharmacodynamics of CDK4/6 and mTOR inhibition in a Phase 0/1 trial of recurrent high-grade glioma” (Neuro-Oncology, 2025)
